Laboratory results published in BigSolDB 2.1.

CC1=NN(c2ccc(C)cc2)C(=O)C1
Conditions	solubility (mole fraction)
in 1,4-dioxane, 283.15 K	0.0337
in 1,4-dioxane, 285.65 K	0.0367
in 1,4-dioxane, 288.15 K	0.0399
in 1,4-dioxane, 290.65 K	0.0432
in 1,4-dioxane, 293.15 K	0.047
in 1,4-dioxane, 295.65 K	0.0507
in 1,4-dioxane, 298.15 K	0.0549
in 1,4-dioxane, 300.65 K	0.0591
in 1,4-dioxane, 303.15 K	0.0638
in 1,4-dioxane, 305.65 K	0.0683
in 1,4-dioxane, 308.15 K	0.0737
in 1,4-dioxane, 310.65 K	0.0791
in 1,4-dioxane, 313.15 K	0.0849
in acetonitrile, 278.15 K	0.00534
in acetonitrile, 280.65 K	0.00596
in acetonitrile, 283.15 K	0.00668
in acetonitrile, 285.65 K	0.00746
in acetonitrile, 288.15 K	0.0083
in acetonitrile, 290.65 K	0.00927
in acetonitrile, 293.15 K	0.0104
in acetonitrile, 295.65 K	0.0115
in acetonitrile, 298.15 K	0.0128
in acetonitrile, 300.65 K	0.0142
in acetonitrile, 303.15 K	0.0157
in acetonitrile, 305.65 K	0.0173
in acetonitrile, 308.15 K	0.0192
in acetonitrile, 310.65 K	0.0213
in acetonitrile, 313.15 K	0.0235
in cyclohexane, 283.15 K	0.000488
in cyclohexane, 285.65 K	0.000558
in cyclohexane, 288.15 K	0.000626
in cyclohexane, 290.65 K	0.000714
in cyclohexane, 293.15 K	0.000802
in cyclohexane, 295.65 K	0.000902
in cyclohexane, 298.15 K	0.00102
in cyclohexane, 300.65 K	0.00114
in cyclohexane, 303.15 K	0.00128
in cyclohexane, 305.65 K	0.00142
in cyclohexane, 308.15 K	0.00161
in cyclohexane, 310.65 K	0.00179
in cyclohexane, 313.15 K	0.002
in ethanol, 278.15 K	0.0146
in ethanol, 280.65 K	0.0161
in ethanol, 283.15 K	0.0176
in ethanol, 285.65 K	0.0191
in ethanol, 288.15 K	0.0209
in ethanol, 290.65 K	0.0229
in ethanol, 293.15 K	0.0248
in ethanol, 295.65 K	0.027
in ethanol, 298.15 K	0.0294
in ethanol, 300.65 K	0.0319
in ethanol, 303.15 K	0.0345
in ethanol, 305.65 K	0.0372
in ethanol, 308.15 K	0.0403
in ethanol, 310.65 K	0.0436
in ethanol, 313.15 K	0.0471
in ethyl acetate, 278.15 K	0.0171
in ethyl acetate, 280.65 K	0.0188
in ethyl acetate, 283.15 K	0.0207
in ethyl acetate, 285.65 K	0.0226
in ethyl acetate, 288.15 K	0.0247
in ethyl acetate, 290.65 K	0.0271
in ethyl acetate, 293.15 K	0.0294
in ethyl acetate, 295.65 K	0.032
in ethyl acetate, 298.15 K	0.0349
in ethyl acetate, 300.65 K	0.0378
in ethyl acetate, 303.15 K	0.041
in ethyl acetate, 305.65 K	0.0444
in ethyl acetate, 308.15 K	0.0481
in ethyl acetate, 310.65 K	0.052
in ethyl acetate, 313.15 K	0.0562
in ethylbenzene, 278.15 K	0.0109
in ethylbenzene, 280.65 K	0.012
in ethylbenzene, 283.15 K	0.0132
in ethylbenzene, 285.65 K	0.0146
in ethylbenzene, 288.15 K	0.016
in ethylbenzene, 290.65 K	0.0175
in ethylbenzene, 293.15 K	0.0193
in ethylbenzene, 295.65 K	0.0211
in ethylbenzene, 298.15 K	0.0231
in ethylbenzene, 300.65 K	0.0253
in ethylbenzene, 303.15 K	0.0276
in ethylbenzene, 305.65 K	0.0301
in ethylbenzene, 308.15 K	0.0327
in ethylbenzene, 310.65 K	0.0356
in ethylbenzene, 313.15 K	0.0387
in isopentanol, 278.15 K	0.0303
in isopentanol, 280.65 K	0.0335
in isopentanol, 283.15 K	0.037
in isopentanol, 285.65 K	0.041
in isopentanol, 288.15 K	0.0449
in isopentanol, 290.65 K	0.0492
in isopentanol, 293.15 K	0.0542
in isopentanol, 295.65 K	0.0593
in isopentanol, 298.15 K	0.0646
in isopentanol, 300.65 K	0.0705
in isopentanol, 303.15 K	0.0769
in isopentanol, 305.65 K	0.0835
in isopentanol, 308.15 K	0.0906
in isopentanol, 310.65 K	0.0982
in isopentanol, 313.15 K	0.106
in isopropanol, 278.15 K	0.0116
in isopropanol, 280.65 K	0.0127
in isopropanol, 283.15 K	0.014
in isopropanol, 285.65 K	0.0153
in isopropanol, 288.15 K	0.0168
in isopropanol, 290.65 K	0.0184
in isopropanol, 293.15 K	0.02
in isopropanol, 295.65 K	0.0218
in isopropanol, 298.15 K	0.0238
in isopropanol, 300.65 K	0.0259
in isopropanol, 303.15 K	0.0281
in isopropanol, 305.65 K	0.0305
in isopropanol, 308.15 K	0.033
in isopropanol, 310.65 K	0.0358
in isopropanol, 313.15 K	0.0387
in methanol, 278.15 K	0.0152
in methanol, 280.65 K	0.0168
in methanol, 283.15 K	0.0183
in methanol, 285.65 K	0.02
in methanol, 288.15 K	0.0221
in methanol, 290.65 K	0.024
in methanol, 293.15 K	0.0262
in methanol, 295.65 K	0.0287
in methanol, 298.15 K	0.0312
in methanol, 300.65 K	0.034
in methanol, 303.15 K	0.0367
in methanol, 305.65 K	0.0398
in methanol, 308.15 K	0.0432
in methanol, 310.65 K	0.0468
in methanol, 313.15 K	0.0506
in n-butanol, 278.15 K	0.0188
in n-butanol, 280.65 K	0.0206
in n-butanol, 283.15 K	0.0226
in n-butanol, 285.65 K	0.0247
in n-butanol, 288.15 K	0.0271
in n-butanol, 290.65 K	0.0294
in n-butanol, 293.15 K	0.032
in n-butanol, 295.65 K	0.0349
in n-butanol, 298.15 K	0.0377
in n-butanol, 300.65 K	0.041
in n-butanol, 303.15 K	0.0444
in n-butanol, 308.15 K	0.0518
in n-butanol, 310.65 K	0.056
in n-butanol, 313.15 K	0.0603
in n-propanol, 278.15 K	0.0177
in n-propanol, 280.65 K	0.0194
in n-propanol, 283.15 K	0.0213
in n-propanol, 285.65 K	0.0232
in n-propanol, 288.15 K	0.0254
in n-propanol, 290.65 K	0.0276
in n-propanol, 293.15 K	0.0301
in n-propanol, 295.65 K	0.0326
in n-propanol, 298.15 K	0.0353
in n-propanol, 300.65 K	0.0384
in n-propanol, 303.15 K	0.0414
in n-propanol, 305.65 K	0.0448
in n-propanol, 308.15 K	0.0483
in n-propanol, 310.65 K	0.0522
in n-propanol, 313.15 K	0.0561
in toluene, 278.15 K	0.00985
in toluene, 280.65 K	0.0109
in toluene, 283.15 K	0.012
in toluene, 285.65 K	0.0133
in toluene, 288.15 K	0.0147
in toluene, 290.65 K	0.0161
in toluene, 293.15 K	0.0176
in toluene, 295.65 K	0.0193
in toluene, 298.15 K	0.021
in toluene, 300.65 K	0.023
in toluene, 303.15 K	0.025
in toluene, 305.65 K	0.0273
in toluene, 308.15 K	0.0298
in toluene, 310.65 K	0.0323
in toluene, 313.15 K	0.0351
